The results in this text go back to patent US5258377A, “2-spirocyclopropyl 4-acylcephems” (Taiho Pharmaceutical Co., Ltd., priority 1991, dated 1993).

By pIC50 is commonly meant the negative decadic logarithm of the IC50, by convention in mol/L. Low readings indicate a high IC50, high ones a low IC50.

pIC50: −log10 of the molar value.

In this assay the target is T1, human leukocyte elastase (HLE) (Homo sapiens, UniProt P08246).
T1 sequence (P08246 30-247 limits assumed): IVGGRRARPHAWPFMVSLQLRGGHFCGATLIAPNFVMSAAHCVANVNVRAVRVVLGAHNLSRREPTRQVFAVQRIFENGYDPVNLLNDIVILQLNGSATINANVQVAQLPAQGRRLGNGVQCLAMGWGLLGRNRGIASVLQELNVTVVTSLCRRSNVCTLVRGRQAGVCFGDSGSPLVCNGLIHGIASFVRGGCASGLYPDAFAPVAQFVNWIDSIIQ
The assay is described as follows: in vitro anti-elastase activity against human leukocyte elastase (HLE). In kind it is biochemical.
In turn, `CCC(=O)C1=C(C)C2(CC2(c2ccccc2)c2ccccc2)S(=O)(=O)[C@@H]2[C@@H](OC)C(=O)N12` (stereo partly drawn) [Compd 2, 7α-Methoxy-2-spiro (2',2'-diphenyl)cyclopropyl-3-methyl-3-cephem-4-ethylcarbonyl 1,1-dioxide] gave a pIC50 of 7.99.

On to `CC1=C(C(=O)C(C)(C)C)N2C(=O)[C@H](Cl)[C@H]2S(=O)(=O)C12CC2(c1ccccc1)c1ccccc1` (stereo partly drawn) [Compd 5, 7α-Chloro-2-spiro(2',2'-diphenyl)cyclopropyl-3-methyl-3-cephem-4-t-butylcarbonyl 1,1-dioxide], for which the pIC50 is 8.20.

As for `CO[C@H]1C(=O)N2C(C(=O)C(C)(C)C)=C(C)C3(CC3(c3ccccc3)c3ccccc3)S(=O)(=O)[C@H]12` (stereo partly drawn) [Compd 6, 7α-Methoxy-2-spiro(2',2'-diphenyl)cyclopropyl-3-methyl-3-cephem-4-t-butylcarbonyl 1,1-dioxide], the pIC50 is 7.92.

`CCCCC(=O)C1=C(C)C2(CC2(c2ccccc2)c2ccccc2)S(=O)(=O)[C@@H]2[C@@H](OC)C(=O)N12` (stereo partly drawn) [Compd 3, 7α-Methoxy-2-spiro(2',2'-diphenyl)cyclopropyl-3-methyl-3-cephem-4-butylcarbonyl 1,1-dioxide] showed a pIC50 of 8.13.

The compound `CC1=C(C(=O)c2ccccc2)N2C(=O)[C@H](Cl)[C@H]2S(=O)(=O)C12CC2(c1ccccc1)c1ccccc1` (stereo partly drawn) [Compd 4, 7α-chloro-2-spiro (2',2'-diphenyl)cyclopropyl-3-methyl-3-cephem-4-phenylcarbonyl 1,1-dioxide] gave a pIC50 of 8.05.
